Test results: PMC7321218, “Synthetic (E)-3-Phenyl-5-(phenylamino)-2-styryl-1,3,4-thiadiazol-3-ium Chloride Derivatives as Promising Chemotherapy Agents on Cell Lines Infected with HTLV-1” (Molecules, 2020)
pIC50, pKd: −log10 of the molar value. “Also recorded” adds a separate entry of the source.

Columns and labels:
[1] = tested on: MT2 cells (HTLV-1-infected cell line); assay: MTT cell viability assay, MT2 cells; type: cell-based; conditions: Homo sapiens, 72 h incubation
Experimental: (§1) The 1 × 10^5 cells/mL were incubated with or without compounds 5a, 5b, 5c, 5d or DMSO (Sigma-Aldrich/Merck, St. Louis, MO, USA) at 37 °C in humidified atmosphere with a 5% CO2. After 72 h, the cellular viability was assessed using 5 mg/mL of 3-(4,5-dimethylthiazol-2-yl)-2,5-diphenyltetrazolium bromide (MTT, Sigma-Aldrich/Merck). Cells were incubated for 3 h, centrifuged, and formazan crystal was dissolved with DMSO. Plates were read on a Paradigma® spectrofluorometer (Molecular Devices, San Jose, CA, USA) at a 490 nm wavelength. Cell death was also evaluated using Propidium Iodide (Biolegend) exclusion after a 24 h culture under the same conditions described above. The fluorescence was examined by FACSCalibus flow cytometry (BD) and 10,000 events were acquired for the experimental data. Analysis was accomplished using Summit V4.0 or FlowJo software (Becton, Dickingson and Company, Santa Barbara, CA, USA).
(§2) Statistical analysis was performed by one-way analysis of variance (ANOVA) and means were compared using a Tukey post-test. The IC50 values were obtained using nonlinear regression. Data were analyzed using GraphPad Prism-5 software (GraphPad software, San Diego, CA, USA), and p ≤ 0.05 was considered statistically significant.

[2] = molecular target: T1, human serum albumin (HSA) (Homo sapiens, UniProt P02768); assay: Time-resolved fluorescence decay of HSA; type: binding; conditions: HSA 1.00 × 10^−5 M with 1.32 × 10^−5 M compound, ca 298 K
T1 construct: three analogous domains (I, II, and III) having amino acid residues of 1–195, 196–383, and 384–585
T1 sequence (P02768 25-609): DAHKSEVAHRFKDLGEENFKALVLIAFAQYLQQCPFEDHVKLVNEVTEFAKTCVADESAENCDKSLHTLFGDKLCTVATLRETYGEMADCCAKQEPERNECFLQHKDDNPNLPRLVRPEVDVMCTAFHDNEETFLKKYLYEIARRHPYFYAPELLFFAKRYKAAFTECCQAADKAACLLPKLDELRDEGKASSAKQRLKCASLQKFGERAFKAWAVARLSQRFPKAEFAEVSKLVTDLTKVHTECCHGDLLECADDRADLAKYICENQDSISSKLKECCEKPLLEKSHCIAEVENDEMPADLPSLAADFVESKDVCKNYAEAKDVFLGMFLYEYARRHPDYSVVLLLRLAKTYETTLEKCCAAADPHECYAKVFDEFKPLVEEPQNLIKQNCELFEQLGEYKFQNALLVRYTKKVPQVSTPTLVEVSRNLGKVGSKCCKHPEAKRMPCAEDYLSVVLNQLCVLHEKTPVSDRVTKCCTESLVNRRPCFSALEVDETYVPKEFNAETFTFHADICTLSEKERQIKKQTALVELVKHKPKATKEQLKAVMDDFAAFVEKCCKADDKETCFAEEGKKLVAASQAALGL
Experimental: The time-resolved fluorescence decay of a 3.0 mL solution of HSA (1.00 × 10^−5 M, in phosphate buffer solution-PBS) was measured in the absence and presence of the maximum concentration of each mesoionic used in the steady-state fluorescence studies (1.32 × 10^−5 M) at room temperature (ca 298 K).

[3] = tested on: C91/PL cells (HTLV-1-infected); assay: MTT cell viability assay, C91/PL cells; type: cell-based; conditions: 72 h incubation
Experimental: as §1, §2

[4] = molecular target: T1, human serum albumin (HSA); assay: Circular dichroism of HSA (secondary structure); type: binding; conditions: CD, 310 K, 1.32 × 10^−5 M compound; for α-helix % of HSA at 222 nm: HSA alone 80.1%; for α-helix % of HSA at 208 nm: HSA alone 86.7%
Experimental: The CD spectra were recorded in the 200–250 nm range at 310 K for free serum albumin (1.00 × 10^−6 M) and for HSA with the higher concentration of each mesoionic used in the steady-state fluorescence studies (1.32 × 10^−5 M). Each spectrum was taken on the average of three scans. The obtained data were further converted into mean residue ellipticity (MRE) according to Equation (6):(6) MRE=θ/(10.n.l.Cp) where θ is the observed ellipticity (mdeg); n is the number of amino acid residues (585 to HSA), l is the length of the optical cuvette (1.0 cm), and Cp is the molar concentration of HSA (1.00 × 10^−6 M). The 5a–d induced helical content perturbation at 208 and 222 nm were calculated using Equation (7):(7) (A) α−helix%(−MRE208−4000)/(33000−4000)×100(B) α−helix%(−MRE222−2340)/(30300)×100 where MRE208 and MRE222 are the significant molar residual ellipticities (deg.cm^2/dmol) at 208 nm and 222 nm, respectively.

Jurkat cells [5] = assay: MTT cell viability assay, Jurkat cells; type: cell-based; conditions: Homo sapiens, 72 h incubation
Experimental: as §1, §2

[6] = molecular target: T1, human serum albumin (HSA); assay: Steady-state fluorescence quenching of HSA; type: binding; conditions: for pKd: Ka (modified Stern–Volmer binding constant); for ΔS°: van't Hoff, 296–310 K
Experimental: The steady-state fluorescence spectra were measured in the 290–450 nm range, at 296, 303, and 310 K, with the excitation wavelength at λ = 295 nm. To a 3.0 mL solution containing an appropriate concentration of HSA (1.00 × 10^−5 M), successive aliquots from a stock solution of each mesoionic under study (1.00 × 10^−3 M in DMSO) were added, with final concentrations of 0.17, 0.33, 0.50, 0.66, 0.83, 0.99, 1.15, and 1.32 × 10^−5 M. The addition was done manually by using a micro syringe. The inner filter correction for the observed steady-state fluorescence of HSA:mesoionic compounds was done in order to compensate for the absorption value of 5a–d at the excitation and emission wavelengths (295 and 340 nm, respectively) when applying Equation (1):(1) Fcor=Fobs10^[Aexc+Aem/2] where Fcor and Fobs are the corrected and observed steady-state fluorescence intensity values, respectively, while Aex and Aem represent absorbance values for each ligand at the excitation and emission wavelengths (λ = 295 and 340 nm, respectively).
The binding properties of each ligand toward HSA—Stern–Volmer quenching constant (KSV), bimolecular quenching rate constant (kq), modified Stern–Volmer binding constant (Ka), enthalpy change (ΔH°), entropy change (ΔS°), and Gibbs’ free energy change (ΔG°)—were calculated from the steady-state fluorescence quenching data according to Equations (2)–(5):(2) F0/F=1+kqτ0[Q]=1+KSV[Q] (3) F0/F0−F=1/f[Q]Ka+1/f (4) lnKa=−ΔH^0/RT+ΔS^0/R (5) ΔG^0=ΔH^0−TΔS^0 where F0 and F are the steady-state fluorescence intensities of HSA in the absence and presence of mesoionics, respectively. [Q] and τ0 are the ligand concentration and fluorescence lifetime, respectively, of the fluorophore in the absence of quencher (5.54 × 10^−9 s—experimental data, see Section 2.3.1). T, ƒ, and R are the temperature (296, 303, and 310 K), fraction of the initial fluorescence intensity that corresponds to fluorophore that is accessible to the quencher (f ≈ 1.0), and gas constant (8.3145 J/mol.K), respectively.

[7] = molecular target: T1, human serum albumin (HSA); assay: Zeta potential of HSA (surface perturbation); type: binding; conditions: for ζ (zeta potential of HSA): HSA with 1.32 × 10^−5 M compound, HSA alone −9.15 ± 1.79; for Conductance: ZP measurement, HSA with compound
Experimental: All zeta potential (ZP) measurements were performed with 10 runs at 298 K and results were reported in terms of ZP ± SD. The ZP was measured for the HSA solution (1.0 × 10^−5 M in PBS solution) without and in the presence of the mesoionic compounds at the maximum concentration used in the steady-state fluorescence experiments (1.32 × 10^−5 M) at room temperature (ca. 298 K).

MT2 cells = assay: Necrosis by propidium iodide labeling (flow cytometry), MT2 cells; type: cell-based; conditions: 25 µM, 24 h, PI labeling
Experimental: as §1

salmon DNA = assay: DNA interaction assay (fluorescence emission); type: binding; conditions: 25 µM compound, DNA 2, 10 and 100 ng/mL
Experimental: Fluorescence emission spectroscopic titration experiments of DNA were conducted in the absence and presence of a constant concentration of the mesoionic compounds 5a–d. […] After that, the fluorescence emission was recorded after 1 h of DNA incubation with or without compounds 5a–d (25 µM) or DMSO, over a wavelength range of 300 to 600 nm in a Tris-acetate-EDTA buffer (Promega) at room temperature. The slit widths for excitation and emission were set to 5.0 nm. The fluorescence was examined using a F4500 fluorometer (Hitachi, New Jersey, NJ, USA).

Jurkat cells [8] = assay: Necrosis by propidium iodide labeling (flow cytometry), Jurkat cells; type: cell-based, human; conditions: 25 µM, 24 h, PI labeling
Experimental: as §1

C91/PL cells = assay: Necrosis by propidium iodide labeling (flow cytometry), C91/PL cells; type: cell-based; conditions: 25 µM, 24 h, PI labeling
Experimental: as §1

Row | SMILES | pIC50 [1] | Relative % of τ1 [2] | Relative % of τ2 [2] | τ1 (HSA fluorescence lifetime) [2] | τ2 (HSA fluorescence lifetime) [2] | pIC50 [3] | α-helix % of HSA at 222 nm [4] | α-helix % of HSA at 208 nm [4] | pIC50 (Jurkat cells [5]) | KSV (Stern–Volmer quenching constant) ([6]; 296 K) | kq (bimolecular quenching rate constant) ([6]; 296 K) | ΔG° ([6]; 296 K) | KSV (Stern–Volmer quenching constant) ([6]; 303 K) | kq (bimolecular quenching rate constant) ([6]; 303 K) | ΔG° ([6]; 303 K) | KSV (Stern–Volmer quenching constant) ([6]; 310 K) | kq (bimolecular quenching rate constant) ([6]; 310 K) | ΔG° ([6]; 310 K) | pKd ([6]; 296 K) | pKd ([6]; 303 K) | also measured
1 | Cc1ccc(Nc2n[n+](-c3ccccc3)c(/C=C/c3ccccc3)s2)cc1.[Cl-] [5a, (E)-3-Phenyl-5-(4′-methylphenylamino)-2-styryl-1,3,4-thiadiazol-3-ium chloride] | 5.82 | 26.4% | 73.6% | 1.61 ± 0.13 ns | 5.38 ± 0.13 ns | 5.55 | 78.5% | 84.0% | 5.67 | 1.19 ± 0.03 × 10^5 M^−1 | 2.15e+13 M⁻¹ s⁻¹ | -6.62 kcal/mol | 1.20 ± 0.03 × 10^5 M^−1 | 2.16e+13 M⁻¹ s⁻¹ | -6.76 kcal/mol | 1.21 ± 0.03 × 10^5 M^−1 | 2.18e+13 M⁻¹ s⁻¹ | -6.91 kcal/mol | 4.89 | 4.88 | pKd ([6]; 310 K): 4.86; ΔS° [6]: 8.46 ± 0.05 × 10^−2 kJ.mol^−1K^−1; ζ (zeta potential of HSA) [7]: −8.62 ± 1.40 mV; Conductance [7]: 29,615 µs
2 | COc1ccc(Nc2n[n+](-c3ccccc3)c(/C=C/c3ccccc3)s2)cc1.[Cl-] [5b, (E)-3-Phenyl-5-(4′-methoxyphenylamino)-2-styryl-1,3,4-thiadiazol-3-ium chloride] | 5.29 | 23.9% | 76.1% | 1.66 ± 0.12 ns | 5.25 ± 0.11 ns | 5.35 | 77.3% | 82.4% | 5.76 | 1.10 ± 0.02 × 10^5 M^−1 | 1.99e+13 M⁻¹ s⁻¹ | -6.69 kcal/mol | 1.14 ± 0.03 × 10^5 M^−1 | 2.06e+13 M⁻¹ s⁻¹ | -6.84 kcal/mol | 1.15 ± 0.03 × 10^5 M^−1 | 2.07e+13 M⁻¹ s⁻¹ | -6.98 kcal/mol | 4.93 | 4.93 | necrotic cells (MT2 cells): 35.34 ± 7.80%; interaction with DNA strands (salmon DNA): can interact with the DNA strands; also recorded: could interact with DNA strands; necrotic cells (Jurkat cells [8]): 75.37 ± 3.63%; necrotic cells (C91/PL cells): 33.75 ± 1.65%; pKd ([6]; 310 K): 4.92; ΔS° [6]: 8.81 ± 0.06 × 10^−2 kJ.mol^−1K^−1; ζ (zeta potential of HSA) [7]: −8.55 ± 1.46 mV; Conductance [7]: 29,642 µs
3 | Clc1ccc(Nc2n[n+](-c3ccccc3)c(/C=C/c3ccccc3)s2)cc1.[Cl-] [5c, (E)-3-Phenyl-5-(4′-chlorophenylamino)-2-styryl-1,3,4-thiadiazol-3-ium chloride] | 5.21 | 33.0% | 67.0% | 1.68 ± 0.11 ns | 5.66 ± 0.16 ns | 5.35 | 78.8% | 83.8% | 5.25 | 1.30 ± 0.03 × 10^5 M^−1 | 2.35e+13 M⁻¹ s⁻¹ | -6.72 kcal/mol | 1.36 ± 0.04 × 10^5 M^−1 | 2.45e+13 M⁻¹ s⁻¹ | -6.91 kcal/mol | 1.40 ± 0.03 × 10^5 M^−1 | 2.53e+13 M⁻¹ s⁻¹ | -7.1 kcal/mol | 4.93 | 4.96 | pKd ([6]; 310 K): 4.98; ΔS° [6]: 11.6 ± 0.1 × 10^−2 kJ.mol^−1K^−1; ζ (zeta potential of HSA) [7]: −8.77 ± 1.52 mV; Conductance [7]: 29,622 µs
4 | Brc1ccc(Nc2n[n+](-c3ccccc3)c(/C=C/c3ccccc3)s2)cc1.[Cl-] [5d, (E)-3-Phenyl-5-(4′-bromophenylamino)-2-styryl-1,3,4-thiadiazol-3-ium chloride] | 5.11 | 29.8% | 70.2% | 1.65 ± 0.10 ns | 5.37 ± 0.13 ns | 5.28 | 77.7% | 82.0% | 5.64 | 1.45 ± 0.02 × 10^5 M^−1 | 2.61e+13 M⁻¹ s⁻¹ | -6.67 kcal/mol | 1.54 ± 0.03 × 10^5 M^−1 | 2.79e+13 M⁻¹ s⁻¹ | -6.86 kcal/mol | 1.60 ± 0.03 × 10^5 M^−1 | 2.89e+13 M⁻¹ s⁻¹ | -7.03 kcal/mol | 4.94 | 4.96 | pKd ([6]; 310 K): 4.97; ΔS° [6]: 10.6 ± 0.1 × 10^−2 kJ.mol^−1K^−1; ζ (zeta potential of HSA) [7]: −8.69 ± 1.50 mV; Conductance [7]: 29,638 µs
